# Test results: ChEMBL document CHEMBL1158386, “Synthesis and biological evaluation of some thiazolidinone derivatives of steroid as antibacterial agents” (2009)
# Tests used:
# [1] = tested on: Escherichia coli; assay: Antibacterial activity against Escherichia coli at 100 ug/ml after 18 hrs by disk diffusion method; assay type: functional; conditions: read-out: IZ
# [2] = tested on: Streptococcus pyogenes; assay: Antibacterial activity against Streptococcus pyogenes at 100 ug/ml after 18 hrs by disk diffusion method; assay type: functional; conditions: read-out: IZ
# [3] = tested on: Staphylococcus aureus; assay: Antibacterial activity against Staphylococcus aureus at 100 ug/ml after 18 hrs by disk diffusion method; assay type: functional; conditions: read-out: IZ
# [4] = tested on: Salmonella enterica subsp. enterica; assay: Antibacterial activity against Salmonella Typhimurium at 100 ug/ml after 18 hrs by disk diffusion method; assay type: functional, Salmonella enterica subsp. enterica serovar Typhimurium; conditions: read-out: IZ
# [5] = tested on: Salmonella enterica subsp. enterica; assay: Antibacterial activity against Salmonella Typhimurium after 18 hrs by macro dilution test; assay type: functional, Salmonella enterica subsp. enterica serovar Typhimurium
# [6] = tested on: Streptococcus pyogenes; assay: Antibacterial activity against Streptococcus pyogenes after 18 hrs by macro dilution test; assay type: functional
# [7] = tested on: Staphylococcus aureus; assay: Antibacterial activity against Staphylococcus aureus after 18 hrs by macro dilution test; assay type: functional
# [8] = tested on: Escherichia coli; assay: Antibacterial activity against Escherichia coli after 18 hrs by macro dilution test; assay type: functional
# [9] = tested on: Escherichia coli; assay: Antibacterial activity against Escherichia coli at 30 ug/disk after 18 hrs by disk diffusion method; assay type: functional; conditions: read-out: IZ
# [10] = tested on: Salmonella enterica subsp. enterica; assay: Antibacterial activity against Salmonella Typhimurium at 30 ug/disk after 18 hrs by disk diffusion method; assay type: functional, Salmonella enterica subsp. enterica serovar Typhimurium; conditions: read-out: IZ
# [11] = tested on: Streptococcus pyogenes; assay: Antibacterial activity against Streptococcus pyogenes at 30 ug/disk after 18 hrs by disk diffusion method; assay type: functional; conditions: read-out: IZ
# [12] = tested on: Staphylococcus aureus; assay: Antibacterial activity against Staphylococcus aureus at 30 ug/disk after 18 hrs by disk diffusion method; assay type: functional; conditions: read-out: IZ
compound,measurement,setting,value
CC(=O)O[C@H]1CC[C@@]2(C)[C@H](C1)/C(=N\NC(=S)NC1CCCC1)C[C@@H]1[C@@H]2CC[C@]2(C)[C@@H]([C@H](C)CCCC(C)C)CC[C@@H]12,zone of inhibition at 100 µg/mL,[1],13.3 mm
same,zone of inhibition at 100 µg/mL,[2],11.4 mm
same,zone of inhibition at 100 µg/mL,[3],12.6 mm
same,zone of inhibition at 100 µg/mL,[4],10.4 mm
CC(C)CCC[C@@H](C)[C@H]1CC[C@H]2[C@@H]3C/C(=N/N=C4\SCC(=O)N4C4CCCC4)[C@H]4C[C@@H](Cl)CC[C@]4(C)[C@H]3CC[C@]12C,MIC,[5],64 µg/mL
same,MIC,[6],32 µg/mL
same,zone of inhibition at 100 µg/mL,[1],22.5 mm
same,MIC,[7],32 µg/mL
same,zone of inhibition at 100 µg/mL,[2],21.4 mm
same,zone of inhibition at 100 µg/mL,[3],20.4 mm
same,MIC,[8],64 µg/mL
same,zone of inhibition at 100 µg/mL,[4],19.4 mm
CC1(C)S[C@@H]2[C@H](NC(=O)[C@H](N)c3ccc(O)cc3)C(=O)N2[C@H]1C(=O)O [AMOXICILLIN],zone of inhibition at 30 µg/disc,[9],20.2 mm
same,zone of inhibition at 30 µg/disc,[10],17.2 mm
same,zone of inhibition at 30 µg/disc,[11],18.2 mm
same,MIC,[5],32 µg/mL
same,MIC,[6],32 µg/mL
same,MIC,[7],32 µg/mL
same,MIC,[8],32 µg/mL
same,zone of inhibition at 30 µg/disc,[12],17 mm
CC(C)CCC[C@@H](C)[C@H]1CC[C@H]2[C@@H]3C/C(=N/NC(=S)NC4CCCC4)[C@H]4C[C@@H](Cl)CC[C@]4(C)[C@H]3CC[C@]12C,zone of inhibition at 100 µg/mL,[1],11.7 mm
same,zone of inhibition at 100 µg/mL,[2],10.2 mm
same,zone of inhibition at 100 µg/mL,[3],11.5 mm
same,zone of inhibition at 100 µg/mL,[4],11.2 mm
CC(C)CCC[C@@H](C)[C@H]1CC[C@H]2[C@@H]3C/C(=N/N=C4\SCC(=O)N4C4CCCC4)[C@H]4CCCC[C@]4(C)[C@H]3CC[C@]12C,MIC,[5],128 µg/mL
same,MIC,[6],128 µg/mL
same,zone of inhibition at 100 µg/mL,[1],14.2 mm
same,MIC,[7],128 µg/mL
same,zone of inhibition at 100 µg/mL,[2],15.2 mm
same,zone of inhibition at 100 µg/mL,[3],14.5 mm
same,MIC,[8],128 µg/mL
same,zone of inhibition at 100 µg/mL,[4],13.6 mm
CC(C)CCC[C@@H](C)[C@H]1CC[C@H]2[C@@H]3C/C(=N/NC(=S)NC4CCCC4)[C@H]4CCCC[C@]4(C)[C@H]3CC[C@]12C,zone of inhibition at 100 µg/mL,[1],12.3 mm
same,zone of inhibition at 100 µg/mL,[2],10.2 mm
same,zone of inhibition at 100 µg/mL,[3],9.4 mm
same,zone of inhibition at 100 µg/mL,[4],10.4 mm
CC(=O)O[C@H]1CC[C@@]2(C)[C@H](C1)/C(=N\N=C1/SCC(=O)N1C1CCCC1)C[C@@H]1[C@@H]2CC[C@]2(C)[C@@H]([C@H](C)CCCC(C)C)CC[C@@H]12,MIC,[5],64 µg/mL
same,MIC,[6],32 µg/mL
same,zone of inhibition at 100 µg/mL,[1],22.8 mm
same,MIC,[7],64 µg/mL
same,zone of inhibition at 100 µg/mL,[2],21.4 mm
same,zone of inhibition at 100 µg/mL,[3],18.5 mm
same,MIC,[8],32 µg/mL
same,zone of inhibition at 100 µg/mL,[4],19.6 mm
